The text below walks through data of US20070128265A1, “Regulation of cell proliferation and differentiation using topically applied peptides” (priority 2000, published 2007).

The test system of one assay is hair follicle cells. Put plainly: BRDU staining of hair follicle cells in depilated C57 BL/6 mice. In kind it is in vivo. Conditions: 10 μg in 30 μl Novasome topically daily for seven days. The procedure:
(§1) C57 BL/6 were purchased from Jackson Labs and were in their telogen state of hair development. The animals were depilated as previously described (1). Groups of six animals received daily a topical application of either 10 μg of PTH (1-34) in 30 μl of Novasome or their depilatated backs, 10 μg of PTH (7-34)/30 μl of Novasome, or 30 μl of Novasome. The animals were dosed daily for seven days. Macroscopic evaluation and tritiated thymidine and bromouridine analysis was made on day seven as previously described (1, 2, 3, 4).

A further assay deals with mammalian cells. The conditions noted are these: U.S. Pat. Nos. 5,527,772, 5,840,690 and 6,066,618; agonists or antagonists of PTH and PTHrP; cited from earlier work.
Assay [1] concerns epidermis of psoriatic lesions. Put plainly: Skin biopsies of psoriatic lesions: hemotoxilin and eosin staining, immunohistochemistry for PCNA and transglutaminase. In kind it is in vivo, patients. Conditions: treated lesions compared to placebo treated lesions, two months.
A further assay has as its system epidermis. Put plainly: Tritiated thymidine incorporation into epidermal DNA in SKH-1 hairless mice. In kind it is in vivo. The procedure:
SKH-1 hairless mice received topically daily for 60 days either 10 μg of PTH (1-34) formulated in Novasome A, PTH (7-34) formulated in Novasome A, or Novasome A without any PTH analog to serve as the control group. The animals received ^3H-tritiated thymidine for the evaluation of epidermal proliferation as previously described.

The test system of another assay is psoriatic lesions. Put plainly: Double blind placebo controlled trial in chronic psoriasis, clinical improvement of lesions. It is filed as in vivo, patients. Conditions: 20 μg/0.1 ml in Novasome topically, two months. The text has this:
Nine patients with chronic psoriasis were enrolled in a double blind placebo controlled trial. […] The percentage of clinical improvement of scaling, erythema, and induration for the lesion treated with placebo was 17.2, 15, and 30%, respectively. For the lesion treated with PTH (1-34), there was a marked improvement in scaling of 30.9%, erythema 34%, and induration 52%, respectively.

The next assay deals with psoriatic lesion. Put plainly: One patient with chronic psoriasis: topical PTH (1-34) followed by calcipotriene cream. It is filed as in vivo. From the text: One patient with chronic psoriasis received topically PTH (1-34) for two months. […] The patient returned two weeks later and, on the lesion treated with PTH (1-34) and the placebo lesion, received topically calcipotriene cream. […] Therefore, the combination therapy of PTH (1-34) followed by calcipotriene or other activated vitamin D compounds can be an effective therapeutic approach for treating psoriasis.

For another assay, the system named is hair follicles. Put plainly: Macroscopic evaluation of hair cycle progression in depilated C57 BL/6 mice. In kind it is in vivo. The conditions noted are these: for hair growth progression (progression of hair follicles into anagen), macroscopic evaluation: 10 μg in 30 μl Novasome topically daily for seven days. On the procedure: as §1

“PTH (1-34): parathyroid hormone fragment (1-34), agonist peptide; tested topically formulated in Novasome A liposomes”: in the assay on hair follicle cells, the “BRDU staining of the hair follicles” value is “demonstrated a decrease”. In the assay on mammalian cells, the “effect on proliferation and differentiation of mammalian cells” value was “inhibit proliferation and enhance differentiation of mammalian cells”. In addition, in assay [1], the “PCNA staining in skin biopsies” value was “restoration of the PCNA staining in the basal layer”, the “proliferation of the epidermis in skin biopsies” value was “marked decrease in the proliferation of the epidermis” and the “transglutaminase staining in skin biopsies” value is reported as “restoration of transglutaminase staining in the upper granular layer”. In the assay on epidermis (10 μg topically daily for 60 days in Novasome A, 3H-thymidine), the “decrease in DNA synthesis (proliferation) compared to the control group” value is 25%. In the assay with psoriatic lesions, the “percentage of clinical improvement of erythema” value is on record as 34%, the “percentage of clinical improvement of induration” value came to 52% and the “percentage of clinical improvement of scaling” value was 30.9%. Also, the “response of psoriatic lesion” value with psoriatic lesion (topical PTH (1-34) for two months) is on record as “minimal response”. Also, the “hair growth progression (progression of hair follicles into anagen), macroscopic evaluation” value in the assay on hair follicles is “decrease in hair growth progression”.
Take “PTH (7-34): parathyroid hormone fragment (7-34), antagonist peptide; tested topically formulated in Novasome A liposomes (LMHNLGKHLNSMERVEWLRKKLQDVHNF; Parathyroid hormone Novasome A liposome formulation; UniProt P01270 38-65, looked up, fragment)”: the “BRDU staining of the hair follicles” value with hair follicle cells was “increase in BRDU staining of the hair follicle”. In the assay with mammalian cells, the “effect on proliferation and differentiation of mammalian cells” value is reported as “enhance the proliferation of mammalian cells”. Besides, the “enhancement in DNA synthesis (proliferation) compared to the control group” value in the assay with epidermis (10 μg topically daily for 60 days in Novasome, 3H-thymidine in the epidermis) is reported as “more than two fold enhancement”. The “hair growth progression (progression of hair follicles into anagen), macroscopic evaluation” value with hair follicles was “increase in the progression of the hair follicles into their proliferative anagen state”. In addition, the “increase in the anagen area” value in the assay on hair follicles (10 μg topically daily for seven days, formulated in Novasome A) stood at 155%.
“PTHrP (1-34): parathyroid related peptide fragment (1-34), agonist of PTH and PTHrP”: the “effect on proliferation and differentiation of mammalian cells” value in the assay on mammalian cells was “inhibit proliferation and enhance differentiation of mammalian cells”.
In the case of “PTH (3-34): parathyroid hormone fragment (3-34), agonist of PTH and PTHrP (SEIQLMHNLGKHLNSMERVEWLRKKLQDVHNF; Parathyroid hormone; UniProt P01270 34-65, looked up, fragment)”, the “effect on proliferation and differentiation of mammalian cells” value in the assay on mammalian cells was “inhibit proliferation and enhance differentiation of mammalian cells”.
With `C=C1/C(=C\C=C2/CCC[C@]3(C)[C@@H]([C@H](C)/C=C/[C@@H](O)C4CC4)CC[C@@H]23)C[C@@H](O)C[C@@H]1O` [calcipotriene, reference compound], the “response of psoriatic lesion after two months of topical calcipotriene cream” value in the assay on psoriatic lesion (lesion pretreated two months with PTH (1-34) or with Novasome placebo) is on record as “no significant improvement”.
On to “PTHrP (7-34): parathyroid related peptide fragment (7-34), antagonist of PTH and PTHrP”, for which, in the assay on mammalian cells, the “effect on proliferation and differentiation of mammalian cells” value is on record as “enhance the proliferation of mammalian cells”.
